The text below walks through data of ChEMBL document CHEMBL4406898, “Dual mode of binding of anti cancer drug epirubicin to G-quadruplex [d-(TTAGGGT)]4 containing human telomeric DNA sequence induces thermal stabilization” (Bioorg Med Chem, 2019).

Structures are written as SMILES.

For data set [1], the system named is Quadruplex DNA. The data set can be described thus: Binding affinity to human telomeric 7 G-quadruplex DNA assessed as binding constant Kb2. The data set is classed as nucleic-acid assay.
Data set [2] concerns the target Albumin (Homo sapiens, UniProt P02768). In words: Binding affinity to human serum albumin assessed as binding constant after 24 hrs by absorption spectroscopy. The format is ADME. As to conditions: isolated protein.
Data set [3] relates to Quadruplex DNA. The data set can be described thus: Binding affinity to human telomeric 7 G-quadruplex DNA assessed as binding constant Kb1. The data set is classed as nucleic-acid assay.

Chain of Albumin (P02768 whole entry): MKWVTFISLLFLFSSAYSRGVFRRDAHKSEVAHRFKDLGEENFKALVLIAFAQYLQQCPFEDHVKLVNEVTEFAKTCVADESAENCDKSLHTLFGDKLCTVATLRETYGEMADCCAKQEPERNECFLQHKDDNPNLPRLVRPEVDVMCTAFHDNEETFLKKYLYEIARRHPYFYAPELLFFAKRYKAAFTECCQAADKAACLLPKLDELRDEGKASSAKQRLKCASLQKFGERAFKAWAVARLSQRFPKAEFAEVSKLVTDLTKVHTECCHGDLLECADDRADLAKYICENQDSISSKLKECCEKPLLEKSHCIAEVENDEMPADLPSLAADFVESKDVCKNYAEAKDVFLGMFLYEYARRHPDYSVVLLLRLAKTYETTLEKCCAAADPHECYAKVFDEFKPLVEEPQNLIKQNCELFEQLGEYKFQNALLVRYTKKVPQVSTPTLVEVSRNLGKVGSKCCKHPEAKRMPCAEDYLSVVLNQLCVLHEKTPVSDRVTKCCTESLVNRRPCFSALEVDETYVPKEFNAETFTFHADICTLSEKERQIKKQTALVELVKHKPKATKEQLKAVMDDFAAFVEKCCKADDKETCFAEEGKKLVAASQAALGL

`COc1cccc2c1C(=O)c1c(O)c3c(c(O)c1C2=O)C[C@@](O)(C(=O)CO)C[C@@H]3O[C@H]1C[C@H](N)[C@H](O)[C@H](C)O1.Cl` [DOXORUBICIN HYDROCHLORIDE]: the Kb was determined as 0.6 ×10⁶ /M in data set [1], 3 ×10³ /M in data set [2] and 1.1 ×10⁶ /M in data set [3].
